Assay results from the NIST ThermoML archive (doi:10.1016/j.jct.2012.01.003).
± gives the expanded uncertainty stated by the source.

Legend:
[1] = 298.2 K; 101.33 kPa; Liquid; Kyoto 210 Density Meter
[2] = refractive index (Na D-line) (dimensionless); details: 298.2 K; 101.33 kPa; Liquid; Standard Abbe refractometry

| SMILES | mass density [1] [kg/m3] | refractive index [2] |
| --- | --- | --- |
| CCCCCCO [hexan-1-ol] | 815.21 ± 0.24 | 1.4155 ± 0.0004 |
| CCCCCCCCCCO [decan-1-ol] | 826.86 ± 0.24 | 1.4344 ± 0.0004 |
| CCC(C)O (stereo unspecified) [butan-2-ol] | 802.34 ± 0.23 | 1.3949 ± 0.0004 |
| CCCCCCCO [heptan-1-ol] | 818.83 ± 0.24 | 1.4224 ± 0.0004 |

The next lines start with the values.

| mass density [1] [kg/m3] | refractive index [2] | SMILES |
| --- | --- | --- |
| 825.1 ± 0.24 | 1.427 ± 0.0004 | CCCCCCCCO [octan-1-ol] |
|  | 1.3324 ± 0.0004 | O [water] |
